{"source": "patent US6893830B1", "about": "“Method of screening oxysterol activation of LXRα” (The Board of Regents of the University of Texas System, priority 1996, dated 2005)", "target": "T1, LXRα (Homo sapiens, UniProt Q13133)", "T1 sequence (Q13133 1-447)": "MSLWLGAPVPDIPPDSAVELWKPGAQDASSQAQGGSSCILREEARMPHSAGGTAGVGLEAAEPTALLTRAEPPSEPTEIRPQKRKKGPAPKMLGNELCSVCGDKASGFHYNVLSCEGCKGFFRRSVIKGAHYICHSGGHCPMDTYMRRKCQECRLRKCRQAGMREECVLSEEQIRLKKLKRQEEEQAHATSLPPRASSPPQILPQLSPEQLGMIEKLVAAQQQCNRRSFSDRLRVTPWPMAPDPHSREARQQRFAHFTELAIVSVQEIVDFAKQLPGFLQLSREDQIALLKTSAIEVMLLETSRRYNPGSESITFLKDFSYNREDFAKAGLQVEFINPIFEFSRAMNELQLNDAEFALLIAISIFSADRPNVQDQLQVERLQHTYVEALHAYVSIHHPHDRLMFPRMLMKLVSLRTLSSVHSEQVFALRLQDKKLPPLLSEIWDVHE", "T1 sequence (P19793 1-462 partner)": "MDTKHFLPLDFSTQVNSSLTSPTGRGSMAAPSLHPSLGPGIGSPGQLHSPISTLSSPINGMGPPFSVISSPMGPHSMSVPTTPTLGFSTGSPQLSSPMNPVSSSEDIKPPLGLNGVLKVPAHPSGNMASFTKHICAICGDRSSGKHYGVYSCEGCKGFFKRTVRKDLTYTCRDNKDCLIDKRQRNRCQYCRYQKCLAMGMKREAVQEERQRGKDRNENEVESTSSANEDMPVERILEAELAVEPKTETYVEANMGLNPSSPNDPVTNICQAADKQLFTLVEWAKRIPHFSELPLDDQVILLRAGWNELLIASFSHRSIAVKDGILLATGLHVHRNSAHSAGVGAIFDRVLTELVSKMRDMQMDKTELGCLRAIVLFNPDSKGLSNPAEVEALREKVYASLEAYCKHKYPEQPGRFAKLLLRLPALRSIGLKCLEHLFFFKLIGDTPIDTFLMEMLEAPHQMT", "experiment": "Activation of LXRα in Drosophila SL-2 cells (LXR responsive reporter)", "format": "cell-based", "set-up": "expressed in transfected cells; host or cells: Drosophila SL-2 cells", "details": "10 μM", "experimental": "TK-DR-4-LUC; human vitamin D receptor (VDR)^24, TK-DR^3-LUC; human peroxisome proliferator-activated receptor-α (PPARα)^25, TK-PPREx3-LUC; human farnesol activated receptor (FXR)^11, ΔMTV-EcREx5-LUC; human estrogen receptor (ER)^26, ΔMTV-ERE-LUC; human glucocorticoid receptor (GR)^27, MTV-LUC; Drosophila ecdysone receptor (usp/EcR)^15, ΔMTV-EcREx5-LUC. Cells were treated with ETOH or 6 μM 22(R)-hydroxycholesterol. […] FIG. 3(A)-3(D) Activation of LXRα by 22(R)-hydroxycholesterol in Drosophila (SL-2) cells. […] CV-1 cells were cotransfected with TK-LXREx3-LUC reporter plasmid and expression plasmids containing the indicated receptor combinations, and then treated with the indicated ligands. […] CV-1 cells cotransfected with the LXRα expression plasmid and TK-LXREx3-LUC reporter were treated with 9-cis RA, 22(R)-hydroxycholesterol, or both, at the indicated concentrations.\nIn FIG. 3B. Drosophila SL-2 cells were transfected and assayed as previously described^5 in 6-well plates with […] A5C-hLXRα or A5C-hLXRα, 0.5 mg ADH-LXREx2-LUC, 0.2 mg A5C-βGAL and […] PGEM4 carrier DNA per well.\nThe insect cell line, SL-2, which lacks mammalian nuclear receptors and is deficient in the metabolic pathways for cholesterol and bile acid synthesis^14, was used as a transfection host in these experiments. […]", "data": [{"compound": "CC(C)CC[C@@H](O)[C@@H](C)[C@H]1CC[C@H]2[C@@H]3CC=C4C[C@@H](O)CC[C@]4(C)[C@H]3CC[C@]12C", "note": "[22(R)-hydroxycholesterol]", "values": [{"measurement": "induction, LXRα alone transfected", "setting": "LXRα alone", "result": 6, "unit": "fold"}, {"measurement": "induction, RXRα cotransfected with LXRα", "setting": "RXRα plus LXRα", "result": 26, "unit": "fold"}]}]}
